Measurements: paper PMC9022726 (International journal of biological macromolecules, 2021)

Biological target: tau K18 (Homo sapiens, UniProt P10636)
Assay: intrinsic fisetin fluorescence titration
Assay type: binding

tau K18, sequence (P10636 561-689): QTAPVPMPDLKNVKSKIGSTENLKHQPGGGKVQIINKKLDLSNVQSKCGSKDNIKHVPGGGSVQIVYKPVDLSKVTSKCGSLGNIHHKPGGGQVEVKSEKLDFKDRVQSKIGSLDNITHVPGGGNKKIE

Kd: 22.6 ± 1.81 µM
SMILES: O=c1c(O)c(-c2ccc(O)c(O)c2)oc2cc(O)ccc12 [fisetin]
